Holding throughout (type): in vivo
Data set [1] relates to Beet Armyworm (Spodoptera exigua, LAPHEG) ("BAW"). The data set can be described thus: Bioassays on BAW, 128-well diet tray assay. The conditions noted are these: 168 h, second instar larvae, 50 μg/cm^2 on artificial diet, 25° C., five to seven days, average of eight wells, read-out: BAW % Control (or Mortality) rating. In outline:
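One to five second-instar larvae were placed per well on artificial diet surface-treated with 50 μg/cm^2 compound from 90:10 acetone-water, dried before infestation. Trays were held at 25 °C, 14:10 light-dark, for five to seven days. Percent mortality was averaged over eight wells.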

The subject of data set [2] is Cabbage Looper (Trichoplusia ni, TRIPNI) ("CL"). Nature of the data set: Bioassays on CL, 128-well diet tray assay. The conditions noted are these: 168 h, second instar larvae, 50 μg/cm^2 on artificial diet, 25° C., five to seven days, average of eight wells, read-out: CL % Control (or Mortality) rating. In outline: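 Second-instar larvae (one to five per well) on artificial diet surface-treated with 50 μg/cm^2 compound in 90:10 acetone-water, eight wells per treatment. Held at 25° C., 14:10 light-dark for five to seven days. Percent mortality scored per well and averaged over the eight wells.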

In data set [3] the test system is Green Peach Aphid (Myzus persicae, MYZUPE) ("GPA"). The data set can be described thus: Bioassays on GPA, foliar spray of infested cabbage seedlings. To be noted: 72 h, 200 ppm spray on cabbage seedlings, graded after three days, Abbott corrected % control, read-out: GPA % Control (or Mortality) rating. The method, then:
Certain molecules disclosed in this document were tested against GPA using procedures described in the following example. In the reporting of the results, the “GPA Rating Table” was used (See Table Section).
Cabbage seedlings grown in 3-inch pots, with 2-3 small (3-5 cm) true leaves, were used as test substrate. The seedlings were infested with 20-50 GPA (wingless adult and nymph stages) one day prior to chemical application. Four pots with individual seedlings were used for each treatment. Test compounds (2 mg) were dissolved in 2 mL of acetone/methanol (1:1) solvent, forming stock solutions of 1000 ppm test compound. The stock solutions were diluted 5× with 0.025% Tween 20 in water to obtain the solution at 200 ppm test compound. A hand-held aspirator-type sprayer was used for spraying a solution to both sides of […] leaves until runoff. Reference plants (solvent check) were sprayed with the diluent only containing 20% by volume of acetone/methanol (1:1) solvent. Treated plants were held in a holding room for three days at approximately 25° C. and ambient relative humidity (RH) prior to grading. Evaluation was conducted by counting the number of live aphids per plant under a microscope. Percent Control was measured by using Abbott's correction formula (W. S. Abbott, “A Method of Computing the Effectiveness of an Insecticide” J. Econ. Entomol. 18 (1925), pp. 265-267) as follows. Corrected % Control=100*(X−Y)/X • where • X=No. of live aphids on solvent check plants and • Y=No. of live aphids on treated plants

Data set [4] concerns Yellow Fever Mosquito (Aedes aegypti, AEDSAE) ("YFM"). Nature of the data set: Bioassays on YFM, 96-well plate larval assay. To be noted: about 1 day-old larvae, from 4000 ppm DMSO master plate diluted, room temperature, scored after 3 days. In outline:
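Compounds from 4000 ppm DMSO master plates, diluted in 90:10 water:acetone, dispensed into 96-well plates, six replicates. About 1-day-old larvae added in liver-powder water. Wells covered, held 3 days at room temperature, then scored for mortality.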

As to `COc1ccc(NC(=O)NCCCc2ccc(-c3ncn(-c4ccc(OC(F)(F)F)cc4)n3)cc2)c(C)c1` [P3, 1-(4-Methoxy-2-methylphenyl)-3-(3-(4-(1-(4-(trifluoromethoxy)phenyl)-1H-1,2,4-triazol-3-yl)phenyl)propyl)urea], the mortality at 50 µg/cm2 in data set [1] and in data set [2] was 0% throughout. Moreover, the mortality at 200 ppm in data set [3] amounted to 0%. In data set [4], the “YFM % Control (or Mortality) rating” value was “D (No activity noticed in this bioassay)”.

Regarding `CSc1ccccc1-c1cccnc1NC(=S)Nc1ccc(-c2ncn(-c3ccc(OC(F)(F)F)cc3)n2)cc1` [F22, 1-(3-(2-(Methylthio)phenyl)pyridin-2-yl)-3-(4-(1-(4-(trifluoromethoxy)phenyl)-1H-1,2,4-triazol-3-yl)phenyl)thiourea], the mortality at 50 µg/cm2 in data set [1] fell in the range of 0 to 50%; in data set [2] it was 50 to 100%. The mortality at 200 ppm in data set [3] lay in the range of 0 to 80%. The “YFM % Control (or Mortality) rating” value in data set [4] was “D (No activity noticed in this bioassay)”.

For `C#Cc1ccccc1NC(=O)Nc1ccc(-c2ncn(-c3ccc(OC(F)(F)F)cc3)n2)cc1` [F5, 1-(2-Ethynylphenyl)-3-(4-(1-(4-(trifluoromethoxy)phenyl)-1H-1,2,4-triazol-3-yl)phenyl)urea], the mortality at 50 µg/cm2 in data set [1] and in data set [2] was 50 to 100% throughout. In addition, the mortality at 200 ppm in data set [3] is 0%. Also, the “YFM % Control (or Mortality) rating” value in data set [4] is “D (No activity noticed in this bioassay)”.

On to `Cc1ccccc1-c1cccc(NC(=O)NCCCc2ccc(-c3ncn(-c4ccc(OC(F)(F)F)cc4)n3)cc2)c1` [FA2, 1-(2′-Methyl-[1,1′-biphenyl]-3-yl)-3-(3-(4-(1-(4-(trifluoromethoxy)phenyl)-1H-1,2,4-triazol-3-yl)phenyl)propyl)urea], for which the mortality at 50 µg/cm2 in data set [1] and in data set [2] was 0% each time. For the same molecule, in data set [3], the mortality at 200 ppm is 0%. Also, the “YFM % Control (or Mortality) rating” value in data set [4] is on record as “D (No activity noticed in this bioassay)”.

`O=C(Nc1ccc(-c2ncn(-c3ccc(OC(F)(F)C(F)(F)F)cc3)n2)cc1)Nc1ccccc1-c1ccccc1` [F68, 1-([1,1′-biphenyl]-2-yl)-3-(4-(1-(4-(perfluoroethoxy)phenyl)-1H-1,2,4-triazol-3-yl)phenyl)urea]: the mortality at 50 µg/cm2 in data set [1] and in data set [2] was 50 to 100% throughout. For the same molecule, the mortality at 200 ppm in data set [3] is 0 to 80%. The “YFM % Control (or Mortality) rating” value in data set [4] is recorded as “A (80-100)”.

For the molecule `CCc1ccccc1NC(=O)Nc1ccc(-c2ncn(-c3ccc(OC(F)(F)F)cc3)n2)cc1` [F46, 1-(2-Ethylphenyl)-3-(4-(1-(4-(trifluoromethoxy)phenyl)-1H-1,2,4-triazol-3-yl)phenyl)urea], the mortality at 50 µg/cm2 in data set [1] and in data set [2] was 50 to 100% throughout. Further, the mortality at 200 ppm in data set [3] lay in the range of 0 to 80%. In addition, the “YFM % Control (or Mortality) rating” value in data set [4] is “B (More than 0 - Less than 80)”.

For the molecule `CCc1ccccc1-c1ccccc1NC(=O)Nc1ccc(-c2ncn(-c3ccc(OC(F)(F)F)cc3)n2)cc1` [F35, 1-(2′-Ethyl-[1,1′-biphenyl]-2-yl)-3-(4-(1-(4-(trifluoromethoxy)phenyl)-1H-1,2,4-triazol-3-yl)phenyl)urea], the mortality at 50 µg/cm2 in data set [1] and in data set [2] was 50 to 100% each time. The mortality at 200 ppm in data set [3] amounted to 0%. Further, in data set [4], the “YFM % Control (or Mortality) rating” value is “A (80-100)”.

For `CCCc1ccccc1NC(=O)Nc1ccc(-c2ncn(-c3ccc(OC(F)(F)F)cc3)n2)cc1` [F37, 1-(2-propylphenyl)-3-(4-(1-(4-(trifluoromethoxy)phenyl)-1H-1,2,4-triazol-3-yl)phenyl)urea], the mortality at 50 µg/cm2 in data set [1] fell in the range of 0 to 50%; in data set [2], 50 to 100%. In addition, in data set [3], the mortality at 200 ppm was in the range of 0 to 80%. For the same molecule, in data set [4], the “YFM % Control (or Mortality) rating” value is on record as “B (More than 0 - Less than 80)”.

Values taken from patent publication US9445594B2, “Molecules having certain pesticidal utilities, intermediates, compositions, and processes, related thereto” (priority 2014, dated 2016).
